Results reported in patent US8309550B2, “Kinase inhibitors and their use as pharmaceutical agents” (Shanghai Genomics, Inc., priority 2011, dated 2012).
pIC50: −log10 of the molar value. Like-named read-outs stand apart in the source and are kept apart here.

Assays:
Aurora A = target: T1, Aurora A (Homo sapiens, UniProt O14965); assay: Z'-LYTE kinase assay Aurora A; format: biochemical
T1 construct: purchased Invitrogen PV3612
T1 sequence (O14965 1-403): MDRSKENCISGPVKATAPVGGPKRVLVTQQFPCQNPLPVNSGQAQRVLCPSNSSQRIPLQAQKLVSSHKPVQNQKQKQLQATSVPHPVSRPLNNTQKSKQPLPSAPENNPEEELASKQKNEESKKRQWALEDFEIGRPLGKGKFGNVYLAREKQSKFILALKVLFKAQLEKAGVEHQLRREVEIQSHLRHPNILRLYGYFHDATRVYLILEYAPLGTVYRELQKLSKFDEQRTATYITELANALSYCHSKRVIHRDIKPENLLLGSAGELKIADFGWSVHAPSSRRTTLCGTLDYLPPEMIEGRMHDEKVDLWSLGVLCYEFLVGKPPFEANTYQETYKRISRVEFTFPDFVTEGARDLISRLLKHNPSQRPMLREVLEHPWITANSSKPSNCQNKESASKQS
How it was run: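 Aurora A inhibition was measured by Z′-LYTE™. After a one-hour kinase reaction at room temperature, development buffer was added for another hour, then stop buffer. A VICTOR-3 reader recorded the 445 nm/520 nm emission ratio with excitation at 400 nm. Phosphorylation was derived from this ratio, and IC50 was obtained by sigmoid fitting in Origin 6.0.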

CDK5/p35 = target: T2, CDK5/p35 (Homo sapiens, UniProt Q00535); assay: Z'-LYTE kinase assay CDK5/p35; format: biochemical
T2 construct: purchased Invitrogen PV3000
How it was run: (§1)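 For CDK1/cyclinB and CDK5/p35, each human recombinant enzyme was used at 0.8 ng/reaction on Ser/Thr 12 peptide under 20 μM ATP. Inhibition was measured by Z′-LYTE FRET after 1 h reaction plus 1 h development at room temperature.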

CDK2/cyclinA = target: T3, CDK2/cyclinA (Homo sapiens, UniProt P24941); assay: Z'-LYTE kinase assay CDK2/cyclinA; format: biochemical
T3 construct: purchased Invitrogen PV3267
How it was run: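 This Z′-LYTE™ fluorescence assay measured inhibition of human CDK2/cyclinA. After the 1 hr kinase reaction, development buffer was added for another hour at room temperature, then stop buffer. The 445 nm/520 nm emission ratio, excited at 400 nm, was read on a VICTOR-3 Multilabel Reader and converted to phosphorylation. Compounds were prepared as 10 mM DMSO stocks.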

CDK1/cyclinB = target: T4, CDK1/cyclinB (Homo sapiens, UniProt P06493); assay: Z'-LYTE kinase assay CDK1/cyclinB; format: biochemical
T4 construct: purchased Invitrogen PV3292
How it was run: as §1

H460-luc = assay: 72 h MTT cytotoxicity assay H460-luc; format: cell-based; conditions: Homo sapiens
Source text: MIT cytotoxicity assay. The compounds of the invention were subjected to a standard cellular proliferation assay using human cell lines. HeLa cells (Human cervix adenocarcinoma cell line, ATCC NO, CCL-2); A549 cells (Human lung carcinoma cells line, ATCC NO, CCL-185); U2OS cells (Human osteosarcoma cell line, ATCC NO, HTB-96); Eca-109 cells (Human esophageal carcinoma cell line); HepG2 (Human hepatocellular liver carcinoma cell line, ATCC NO, HB-8065); K562 cells (Human chronic myelogenous leukemia cell line, ATCC NO, CCL-243); SK-MEL-28 (Human malignant melanoma cell line, ATCC NO, HTB-72); Molt-4 (Human acute lymphoblastic leukemia cell line, ATCC NO, CRL-1582); H460 (Human large cell lung cancer cell line, ATCC NO, HTB-177); MDA-MB-231 (Human breast adenocarcinoma cell line, ATCC NO, HTB-26); MCF7 (Human breast adenocarcinoma cell line, ATCC NO, HTB-22); ACHN (Human renal cell adenocarcinoma cell line, ATCC NO, CRL-1611); PC-3M (Human prostate adenocarcinoma cell line, ATCC NO CRL-1435); HL60 (Human acute promyelocytic leukemia cell line, ATCC NO, CCL-240); THP-1 (Human acute monocytic leukemia, ATCC NO, TIB-202); Jurkat (Human acute T cell leukemia cell line, ATCC NO, CRL-2063); HCT-116 (Human colorectal carcinoma cell line, ATCC NO, CCL-247); HT-29 (Human colorectal adenocarcinoma cell line, ATCC NO, HTB-38™); WI-38 (Human normal lung cell line, ATCC NO, CCL-75); MRC-5 (Human normal lung cell line, ATCC NO, CCL-171).
HepG2, MDA-MB-231, WI-38 and MRC-5 cells were obtained from Shanghai Institute of Cell Biology, Chinese Academy of Sciences (Shanghai 200031, China). A549, HeLa, K562, MCF7, ACHN, H460, U2OS, Eca-109, MCF7, HL60, THP-1, Jurkat, HCT-116, HT-29, PC-3M, SK-MEL-28, Molt-4, H460 and […] cells were purchased from ATCC (American Type Culture Collection, USA).
Standard 72 h MTT (thiazolye blue; 3-[4,5-dimethylthiazol-2-yl]-2,5-diphenyltetrazolium bromide) assays were performed. Briefly, the cell lines used in this study were recovered and cultured according to the conditions recommended. 4000 cells per well were seeded into 96-well plates according to doubling time and incubated overnight at 37° C. Compounds were prepared in DMSO and a ½ dilution series in 100 μl cell culture media, added to cells (in duplicates) with the final DMSO concentration of 0.025%, and incubated for 72 hrs at 37° C. MTT solution (5 mg/ml) was added at 10 μl per well and incubated in the dark at 37° C. for 4 hr. Culture medium and MTT solution was removed. MTT dye was solubilised with 100 μl per well of DMSO with agitation. Absorbance was read at 562 nm and data analyzed using Sigmoid curve-fitting software Origin 6.0 (MicroCal, LLC, USA) to determine IC50 value.

Aurora B = Aurora B (Homo sapiens, UniProt Q96GD4); assay: Kinase assay Aurora B (Table I); format: biochemical
[1] = read-out: Kinase inhibition, IC50 Aurora A
[2] = read-out: Kinase inhibition, IC50 CDK5/p35
[3] = read-out: Kinase inhibition, IC50 CDK2A
[4] = read-out: Kinase inhibition, IC50 CDK1B
[5] = NCI-H460-Luc, H460-luc, 72 hrs, read-out: Cytotoxicity, MTT 72 hrs, IC50 H460-luc
[6] = read-out: Kinase inhibition, IC50 Aurora B
[7] = Table III, read-out: Target biochemical activity IC50 Aurora A
[8] = Table III, read-out: Target biochemical activity IC50 CDK5
[9] = Table III, read-out: Target biochemical activity IC50 CDK2
[10] = Table III, read-out: Target biochemical activity IC50 CDK1
[11] = H460, Table III, read-out: Cellular effect in mammalian cells IC50 H460
[12] = Table III, read-out: Target biochemical activity IC50 Aurora B

T2 sequence (Q00535 whole entry): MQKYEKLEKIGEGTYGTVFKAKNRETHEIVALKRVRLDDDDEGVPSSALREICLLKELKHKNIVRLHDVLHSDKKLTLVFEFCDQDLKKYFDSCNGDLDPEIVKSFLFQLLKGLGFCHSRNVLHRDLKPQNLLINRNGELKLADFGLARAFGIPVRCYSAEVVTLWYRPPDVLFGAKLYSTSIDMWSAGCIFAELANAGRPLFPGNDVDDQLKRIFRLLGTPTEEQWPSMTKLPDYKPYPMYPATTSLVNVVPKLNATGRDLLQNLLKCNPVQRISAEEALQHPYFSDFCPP
T2 sequence (Q15078 whole entry partner): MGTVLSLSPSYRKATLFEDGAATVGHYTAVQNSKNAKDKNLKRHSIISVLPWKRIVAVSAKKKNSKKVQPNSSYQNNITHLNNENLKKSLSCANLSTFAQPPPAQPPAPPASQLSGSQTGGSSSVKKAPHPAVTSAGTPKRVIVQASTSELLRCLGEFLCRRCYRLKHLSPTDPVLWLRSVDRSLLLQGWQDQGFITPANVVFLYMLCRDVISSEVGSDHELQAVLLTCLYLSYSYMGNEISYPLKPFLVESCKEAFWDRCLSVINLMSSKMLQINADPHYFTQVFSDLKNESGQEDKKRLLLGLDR
T4 sequence (P06493 whole entry): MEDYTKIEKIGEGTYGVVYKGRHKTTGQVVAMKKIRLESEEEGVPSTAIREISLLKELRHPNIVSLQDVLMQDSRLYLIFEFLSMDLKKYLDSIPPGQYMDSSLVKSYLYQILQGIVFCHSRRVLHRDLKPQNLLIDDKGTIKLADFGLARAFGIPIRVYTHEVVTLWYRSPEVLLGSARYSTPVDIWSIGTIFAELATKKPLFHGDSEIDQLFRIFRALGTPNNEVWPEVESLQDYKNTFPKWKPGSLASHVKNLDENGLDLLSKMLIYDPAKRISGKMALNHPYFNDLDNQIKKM
T4 sequence (P14635 whole entry partner): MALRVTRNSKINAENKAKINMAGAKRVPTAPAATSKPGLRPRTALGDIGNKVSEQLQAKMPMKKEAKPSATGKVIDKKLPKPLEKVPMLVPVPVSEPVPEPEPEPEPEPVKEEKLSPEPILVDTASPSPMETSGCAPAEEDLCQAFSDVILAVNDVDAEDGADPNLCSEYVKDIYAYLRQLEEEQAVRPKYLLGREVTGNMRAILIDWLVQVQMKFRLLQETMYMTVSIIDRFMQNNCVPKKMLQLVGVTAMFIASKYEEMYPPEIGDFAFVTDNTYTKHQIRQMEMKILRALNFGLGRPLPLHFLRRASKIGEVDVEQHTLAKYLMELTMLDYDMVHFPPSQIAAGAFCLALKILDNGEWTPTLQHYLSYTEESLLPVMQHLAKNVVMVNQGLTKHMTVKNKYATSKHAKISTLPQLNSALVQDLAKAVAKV
Aurora B, sequence (Q96GD4 whole entry): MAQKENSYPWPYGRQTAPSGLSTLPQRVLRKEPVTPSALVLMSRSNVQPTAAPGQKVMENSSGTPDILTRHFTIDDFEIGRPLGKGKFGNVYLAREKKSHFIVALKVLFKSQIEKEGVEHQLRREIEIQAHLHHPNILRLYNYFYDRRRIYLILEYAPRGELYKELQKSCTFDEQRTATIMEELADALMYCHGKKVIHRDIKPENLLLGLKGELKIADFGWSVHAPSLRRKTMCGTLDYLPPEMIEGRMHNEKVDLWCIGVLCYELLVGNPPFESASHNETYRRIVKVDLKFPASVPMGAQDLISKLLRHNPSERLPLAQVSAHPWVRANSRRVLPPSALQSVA

pIC50 (Aurora A; [1])	pIC50 (CDK5/p35; [2])	pIC50 (CDK2/cyclinA; [3])	pIC50 (CDK1/cyclinB; [4])	pIC50 (Aurora B; [6])	pIC50 (Aurora A; [7])	pIC50 (CDK5/p35; [8])	pIC50 (CDK2/cyclinA; [9])	pIC50 (CDK1/cyclinB; [10])	pIC50 (Aurora B; [12])	Compound	pIC50 (H460-luc; [5])	pIC50 (H460-luc; [11])
7.30	9.30	9.30	9.40	7.23						CCCn1cc(-c2ccnc(Nc3cccc(S(N)(=O)=O)c3)n2)c2ccncc21 [Compound 111, 3-(4-(1-Propyl-1H-pyrrolo[2,3-c]pyridin-3-yl)pyrimidin-2-ylamino)benzenesulfonamide]	8.22	
6.09	8.89	8.00	9.40	8.80						CCCn1cc(-c2ccnc(Nc3ccc(S(N)(=O)=O)cc3)n2)c2ccncc21 [Compound 112, 4-(4-(1-Propyl-1H-pyrrolo[2,3-c]pyridin-3-yl)pyrimidin-2-ylamino)benzenesulfonamide]	7.70	
					7.30	9.30	9.30	9.40	7.23	CCCn1cc(-c2ccnc(Nc3cccc(S(N)(=O)=O)c3)n2)c2ccncc21 [SG51]		> 7.00
					5.78	7.60	7.52	7.15	6.00	CCCn1cc(-c2ccnc(Nc3ccc(C)c(S(=O)(=O)N4CCOCC4)c3)n2)c2ccncc21 [SG52]		6.66
					7.01	< 5.00	< 5.00	5.16	6.72	CCCn1cc(-c2ccnc(Nc3cccc(S(N)(=O)=O)c3)n2)c2nc(Cl)cc(C)c21 [SG53]		5.70
					6.21	< 5.00	5.78	< 5.00	6.49	CCCn1cc(-c2ccnc(Nc3ccc(S(N)(=O)=O)cc3)n2)c2nc(Cl)cc(C)c21 [SG54]		5.99

More lines, now with the values behind:

Compound	pIC50 (Aurora A; [1])	pIC50 (CDK5/p35; [2])	pIC50 (CDK2/cyclinA; [3])	pIC50 (CDK1/cyclinB; [4])	pIC50 (Aurora B; [6])	pIC50 (Aurora A; [7])	pIC50 (CDK5/p35; [8])	pIC50 (CDK2/cyclinA; [9])	pIC50 (CDK1/cyclinB; [10])	pIC50 (Aurora B; [12])	pIC50 (H460-luc; [5])	pIC50 (H460-luc; [11])
CCCn1cc(-c2ccnc(Nc3ccc(O)cc3)n2)c2cccnc21 [Compound 15, 4-(4-(1-Propyl-1H-pyrrolo[2,3-b]pyridin-3-yl)pyrimidin-2-ylamino)phenol]	6.68	5.65	7.55	5.78	6.17						5.30	
CCCn1cc(-c2ccnc(Nc3cccc(O)c3)n2)c2cccnc21 [Compound 16, 3-(4-(1-Propyl-1H-pyrrolo[2,3-b]pyridin-3-yl)pyrimidin-2-ylamino)phenol]	< 5.00	5.63	8.22	5.87	5.90						5.39	
CCn1cc(-c2ccnc(Nc3cccc(S(N)(=O)=O)c3)n2)c2cccnc21 [Compound 18, 3-(4-(1-Ethyl-1H-pyrrolo[2,3-b]pyridin-3-yl)pyrimidin-2-ylamino)benzenesulfonamide]	7.52	6.57	8.52	6.20	6.15	7.52	6.57	8.52	6.20	6.15	5.90	5.90
CCn1cc(-c2ccnc(Nc3cccc(C#N)c3)n2)c2cccnc21 [Compound 20, 3-(4-(1-Ethyl-1H-pyrrolo[2,3-b]pyridin-3-yl)pyrimidin-2-ylamino)benzonitrile]	5.16	5.34	5.46	5.15	< 5.00						< 5.00	
CCCn1cc(-c2ccnc(Nc3cccc(S(N)(=O)=O)c3)n2)c2cccnc21 [Compound 22, 3-(4-(1-Propyl-1H-pyrrolo[2,3-b]pyridin-3-yl)pyrimidin-2-ylamino)benzenesulfonamide]	8.10	6.40	6.72	6.35	5.44						5.95	
CCCn1cc(-c2ccnc(Nc3ccc(C)c(S(=O)(=O)N4CCOCC4)c3)n2)c2cccnc21 [Compound 24, N-(4-Methyl-3-(morpholinosulfonyl)phenyl)-4-(1-propyl-1H-pyrrolo[2,3-b]pyridin-3-yl)pyrimidin-2-amine]	5.03	5.05	5.34	5.28	≤ 5.00						5.85	
CCCn1cc(-c2ccnc(Nc3cccc(S(N)(=O)=O)c3)n2)c2nc(Cl)cc(C)c21 [Compound 42, 3-(4-(5-Chloro-7-methyl-1-propyl-1H-pyrrolo[3,2-b]pyridin-3-yl)pyrimidin-2-ylamino)benzenesulfonamide]	7.01	< 5.00	< 5.00	5.16	6.72						5.70	
CCCn1cc(-c2ccnc(Nc3cccc(S(N)(=O)=O)c3)n2)c2ccnc(Cl)c21 [Compound 96, 3-(4-(7-chloro-1-propyl-1H-pyrrolo[2,3-c]pyridin-3-yl)pyrimidin-2-ylamino)benzenesulfonamide]	6.10	7.70	> 10.00	> 10.00	< 5.00						6.59	
CCCn1cc(-c2ccnc(Nc3ccc(C)c(S(=O)(=O)N4CCOCC4)c3)n2)c2ccncc21 [Compound 102, N-(4-Methyl-3-(morpholinosulfonyl)phenyl)-4-(1-propyl-1H-pyrrolo[2,3-c]pyridin-3-yl)pyrimidin-2-amine]	5.78	7.60	7.52	7.15	5.47						6.66	
